Target: P-glycoprotein (P-gp) (Homo sapiens (Human), UniProt P08183)
Assay: MDCK-MDR1 permeability / efflux assay
Type: in vitro ADME
Details: efflux ratio, 10 μM, 120 min
Protocol: Example 4. Experimental Measurement of Efflux with MDCK-MDR1 Protocol
Cell Culture. MDCK-MDR1 cells were cultured at 37° C. under a 5% CO2 atmosphere, at 95% relative humidity in DMEM containing 10% FBS, penicillin-streptomycin (100 μg/mL), and 2 mM Ala-Gln. Cells were passaged every 3-4 days. For assay purposes, cells were seeded at a density of approximately 265,000 cells/cm^2 of a 96-well Transwell plate (Corning Life Sciences, Acton, MA) and cultured in the same media noted above for a period of 4 days.
Assay. The determination of the apparent permeability (Papp) was performed in both the A→B (apical to basal) and B→A (basal to apical) directions where each compound was assayed in triplicate. The zwitterion bestatin, a poorly permeably compound, was used as marker of monolayer integrity. To initiate the assay, media was aspirated, and the cells and basal chambers were washed three times with Hank's Balanced Salt Solution (HBSS) containing 10 mM HEPES (pH 7.4). Compound test solutions were prepared in triplicate in HBSS containing 10 mM HEPES (pH 7.4) and 0.02% bovine serum albumin (BSA) to a final concentration of 10 μM and centrifuged for 2 min at 4000×g, then applied to the donor compartment at time zero. Additionally, at time zero, a 37° C. solution without test articles (HBSS+10 mM HEPES (pH 7.4) plus 0.02% BSA) was added to the receiver chamber of the Transwell plate. A time zero sample of the donor solution was also sampled for further analysis. The assay was conducted for a period of 120 min at 37° C. without shaking. At the time of assay termination, samples were taken from each donor compartment, and each acceptor compartment of the Transwell plate. To each of the 0 and 120 min samples was added an internal standard solution containing glyburide in water:acetonitrile, 50:50 (v:v). Concentration curves were prepared using a Labcyte Echo in the same matrix noted above. Samples and concentration curve samples were centrifuged for 10 min at 4000×g and subsequently analyzed by mass spectroscopy.
Mass Spectroscopy. Assay samples were loaded onto a RapidFire C4 cartridge by means of a RapidFire autosampler (Agilent, Santa Clara, CA). […] Mass spectroscopy was performed using an AB Sciex AP15500 (Sciex, Frammingham, MA) equipped with a turbo ion spray source. The analyte concentration was calculated from the chromatographic peak area ratio of analyte to internal standard (glibenclamide, m/z 494→169), using Multiquant software V3.0 (Sciex, Framingham, MA).
Calculations. Papp values were determined as
Percent recovery values were determined as:
where VA is the volume of the acceptor (mL), S is the surface area of the membrane, D0 is the donor solution concentration at t=0, D120 is the donor solution concentration at t=120, A120 is the acceptor solution concentration at t=120, and t=time (seconds).
The suitability of a compound for oral dosing and/or for use as a CNS therapeutic is usually conducted by MDCK-MDR1 permeability assay to investigate its drug efflux potential mediated by P-glycoprotein (P-gp). MDCK-MDR1 permeability has been used as a predictor of blood brain barrier permeability in terms of efflux ratio (ER).

Sequence of P-glycoprotein (P-gp) (P08183 whole entry): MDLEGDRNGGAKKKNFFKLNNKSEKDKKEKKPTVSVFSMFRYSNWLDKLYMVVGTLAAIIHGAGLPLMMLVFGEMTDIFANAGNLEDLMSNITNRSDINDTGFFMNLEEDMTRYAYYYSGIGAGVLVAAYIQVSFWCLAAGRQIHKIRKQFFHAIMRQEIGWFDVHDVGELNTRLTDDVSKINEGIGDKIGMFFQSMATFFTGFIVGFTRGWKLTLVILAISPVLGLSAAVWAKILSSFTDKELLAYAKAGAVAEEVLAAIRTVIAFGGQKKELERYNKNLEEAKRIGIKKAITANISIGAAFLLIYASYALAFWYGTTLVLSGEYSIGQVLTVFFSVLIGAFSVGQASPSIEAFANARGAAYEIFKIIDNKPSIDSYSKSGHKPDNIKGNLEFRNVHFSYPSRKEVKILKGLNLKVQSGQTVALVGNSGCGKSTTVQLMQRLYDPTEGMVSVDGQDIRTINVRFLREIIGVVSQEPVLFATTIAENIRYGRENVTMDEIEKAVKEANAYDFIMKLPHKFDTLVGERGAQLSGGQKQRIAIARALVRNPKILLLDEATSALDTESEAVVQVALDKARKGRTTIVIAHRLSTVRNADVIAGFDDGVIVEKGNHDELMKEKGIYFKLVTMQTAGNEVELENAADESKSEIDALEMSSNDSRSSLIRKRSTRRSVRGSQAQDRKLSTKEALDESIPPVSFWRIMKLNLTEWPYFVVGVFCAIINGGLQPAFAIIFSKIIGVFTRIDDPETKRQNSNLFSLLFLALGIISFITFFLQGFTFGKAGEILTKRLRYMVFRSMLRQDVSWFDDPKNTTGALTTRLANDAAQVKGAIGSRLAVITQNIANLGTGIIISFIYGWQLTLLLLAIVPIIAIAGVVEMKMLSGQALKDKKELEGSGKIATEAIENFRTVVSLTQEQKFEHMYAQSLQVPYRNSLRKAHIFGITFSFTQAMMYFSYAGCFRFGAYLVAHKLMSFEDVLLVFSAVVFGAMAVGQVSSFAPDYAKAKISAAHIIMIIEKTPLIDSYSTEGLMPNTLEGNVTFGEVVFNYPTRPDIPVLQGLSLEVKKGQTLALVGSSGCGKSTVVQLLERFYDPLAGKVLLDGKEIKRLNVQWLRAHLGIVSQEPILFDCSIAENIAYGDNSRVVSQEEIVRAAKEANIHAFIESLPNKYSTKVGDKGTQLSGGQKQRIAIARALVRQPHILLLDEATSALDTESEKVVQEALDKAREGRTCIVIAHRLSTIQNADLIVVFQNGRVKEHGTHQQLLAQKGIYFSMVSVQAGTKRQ

| MDCK-MDR1 ER | Compound |
| --- | --- |
| 0.83 | 9-fluoro-7-((R)-1-hydroxy-2-((3aS,5S,6aR)-3a-hydroxy-5-phenoxyhexahydrocyclopenta[c]pyrrol-2(1H)-yl)ethyl)-1,5-dihydrobenzo[e][1,4]oxazepin-2(3H)-one [Example 32A] |

Target: NR2B (Rattus norvegicus (Rat), UniProt Q00960)
Sequence (Q00960 27-1482, other chains not shown): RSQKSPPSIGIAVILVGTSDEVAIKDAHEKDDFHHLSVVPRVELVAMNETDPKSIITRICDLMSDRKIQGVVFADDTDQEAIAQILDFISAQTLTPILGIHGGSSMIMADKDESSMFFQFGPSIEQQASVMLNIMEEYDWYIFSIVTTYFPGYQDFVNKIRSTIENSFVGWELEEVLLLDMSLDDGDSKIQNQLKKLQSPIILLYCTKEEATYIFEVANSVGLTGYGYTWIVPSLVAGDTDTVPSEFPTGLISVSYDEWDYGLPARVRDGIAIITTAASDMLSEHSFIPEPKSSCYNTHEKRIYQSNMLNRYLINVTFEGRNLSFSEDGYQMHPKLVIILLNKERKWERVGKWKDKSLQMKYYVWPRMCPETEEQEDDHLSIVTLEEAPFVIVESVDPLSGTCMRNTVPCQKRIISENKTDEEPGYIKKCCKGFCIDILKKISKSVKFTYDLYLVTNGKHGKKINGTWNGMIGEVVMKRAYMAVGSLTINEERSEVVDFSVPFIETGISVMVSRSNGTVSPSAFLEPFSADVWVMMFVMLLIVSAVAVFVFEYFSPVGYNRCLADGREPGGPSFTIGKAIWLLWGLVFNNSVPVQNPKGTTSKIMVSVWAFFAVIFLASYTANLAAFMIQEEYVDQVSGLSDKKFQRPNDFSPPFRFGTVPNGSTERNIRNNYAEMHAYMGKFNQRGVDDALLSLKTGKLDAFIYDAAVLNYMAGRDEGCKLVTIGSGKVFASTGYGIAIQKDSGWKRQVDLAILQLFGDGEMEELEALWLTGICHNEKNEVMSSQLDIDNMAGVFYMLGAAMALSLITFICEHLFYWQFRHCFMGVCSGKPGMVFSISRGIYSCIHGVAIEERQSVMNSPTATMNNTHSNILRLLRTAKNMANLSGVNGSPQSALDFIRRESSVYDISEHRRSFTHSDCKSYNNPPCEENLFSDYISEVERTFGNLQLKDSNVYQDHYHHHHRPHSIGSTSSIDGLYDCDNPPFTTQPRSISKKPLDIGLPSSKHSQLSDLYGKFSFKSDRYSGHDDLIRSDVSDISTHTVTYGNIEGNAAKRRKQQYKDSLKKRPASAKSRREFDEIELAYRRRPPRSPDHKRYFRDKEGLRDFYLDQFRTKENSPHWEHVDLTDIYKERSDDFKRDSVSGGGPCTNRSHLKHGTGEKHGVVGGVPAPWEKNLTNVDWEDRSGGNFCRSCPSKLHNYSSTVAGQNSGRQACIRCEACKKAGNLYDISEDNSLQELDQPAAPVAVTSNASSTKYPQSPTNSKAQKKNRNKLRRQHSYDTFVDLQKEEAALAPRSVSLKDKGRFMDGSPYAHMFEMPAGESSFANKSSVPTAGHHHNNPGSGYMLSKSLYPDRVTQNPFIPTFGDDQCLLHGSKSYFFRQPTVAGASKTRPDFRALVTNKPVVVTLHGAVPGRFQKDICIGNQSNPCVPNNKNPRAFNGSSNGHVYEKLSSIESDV
Assay: NR2B rat cortical neuron calcium influx assay
Type: cell-based
Details: rat cortical neurons, glutamate and glycine stimulated calcium influx
Text: Example 1: NR2B Rat Cortical Neuron Calcium Influx Assay Protocol
Embryonic day 18 timed pregnant Sprague Dawley rats were euthanized according to Institutional Animal Care and Use Committee (IACUC) protocol. After cutting medially through the skin and exposing the uterus and embryos, fetuses were removed and placed in cold Hibernate medium. Each embryo's brain was extracted and cerebral cortices were isolated by removing the midbrain and meninges. The dissected cortices were then dissociated into the neurons using papain dissociation system (Worthington Biochemical Corporation) according the manufacturer's protocol.
Dissociated neurons were counted and plated into 384-well poly-D-lysine coated plates (Corning® BioCoat™) at a density of 20,000 cells/well in 30 μL of Neurobasal/B27 complete medium. Neurons were cultured at 37° C. for 2 days. On the assay day, medium was removed and cells were incubated with 20 μL/well of calcium dye (Calcium 6 Assay Kit, Molecular Devices) suspended in HBSS with 1.8 mM Ca^2+ (Ca-HBSS) according to the manufacturer's instruction.
Compounds of interest from 10 mM stock were serially diluted into 3× of desired concentrations in 1.8 mM Ca-HBSS, and 10 μL were added to the wells. Compound and the neurons were incubated at 37° C. for 2 hours in the dark.
On FDSS7000EX (Hamamatsu Photonics), a fluorescence measuring instrument, 10 μL of 4× ligand solution containing glutamate and glycine made in 1.8 mM Ca^2+-HBSS were added to each well. The fluorescent signals were collected before and after the addition of ligands for a total of 2 minutes. The data were converted to a ratio of the peak fluorescence to the fluorescence at the beginning of the measurement.
Each data point was measured in duplicates. Dose response curves were used to identify IC50 and maximal inhibition values. IC50 represents the concentration in μM of compound at which there is a half-maximal compound effect. Maximal inhibition of a compound is expressed as a percent of the highest inhibition of activity over a no compound control.

| Compound | IC50 |
| --- | --- |
| 9-fluoro-7-((R)-1-hydroxy-2-((3aS,5S,6aR)-3a-hydroxy-5-phenoxyhexahydrocyclopenta[c]pyrrol-2(1H)-yl)ethyl)-1,5-dihydrobenzo[e][1,4]oxazepin-2(3H)-one [Example 32A] | 0.96 µM |
| O=C1CCc2cc([C@H](O)CN3C[C@H]4C[C@H](Oc5ccccc5F)C[C@@]4(O)C3)cc(F)c2N1 (single isomer, unassigned) [Example 6B] | 1.06 µM |
| O=C1CCc2cc([C@@H](O)CN3C[C@H]4C[C@H](Oc5ccc(F)cc5)C[C@@]4(O)C3)ccc2N1 (single isomer, unassigned) [Example 22A] | 0.023 µM |
| O=C1CCc2cc([C@H](O)CN3C[C@H]4C[C@H](Oc5ccc(F)cc5)C[C@@]4(O)C3)ccc2N1 (single isomer, unassigned) [Example 22B] | 0.42 µM |
| O=C1CCc2cc([C@@H](O)CN3C[C@H]4C[C@H](Oc5cccc(F)c5)C[C@@]4(O)C3)ccc2N1 (single isomer, unassigned) [Example 23A] | 0.033 µM |
| O=C1CCc2cc([C@H](O)CN3C[C@H]4C[C@H](Oc5cccc(F)c5)C[C@@]4(O)C3)ccc2N1 (single isomer, unassigned) [Example 23B] | 0.28 µM |
| O=C1CCc2cc([C@H](O)CN3C[C@H]4C[C@H](Oc5cccc(F)c5F)C[C@@]4(O)C3)ccc2N1 (single isomer, unassigned) [Example 24B] | 0.057 µM |
| O=C1CCc2cc([C@@H](O)CN3C[C@H]4C[C@H](Oc5ccc(F)cc5F)C[C@@]4(O)C3)ccc2N1 (single isomer, unassigned) [Example 25A] | > 1.1 µM |
| O=C1CCc2cc([C@@H](O)CN3C[C@H]4C[C@H](Oc5cc(F)ccc5F)C[C@@]4(O)C3)ccc2N1 (single isomer, unassigned) [Example 26A] | 0.25 µM |
| O=C1CCc2cc([C@H](O)CN3C[C@H]4C[C@H](Oc5cc(F)ccc5F)C[C@@]4(O)C3)ccc2N1 (single isomer, unassigned) [Example 26B] | 0.47 µM |
| O=C1CCc2cc([C@@H](O)CN3C[C@H]4C[C@H](Oc5c(F)cccc5F)C[C@@]4(O)C3)ccc2N1 (single isomer, unassigned) [Example 27A] | > 1.1 µM |
| O=C1CCc2cc([C@H](O)CN3C[C@H]4C[C@H](Oc5c(F)cccc5F)C[C@@]4(O)C3)ccc2N1 (single isomer, unassigned) [Example 27B] | 0.29 µM |
| O=C1CCCc2cc([C@H](O)CN3C[C@H]4C[C@H](Oc5ccccc5)C[C@@]4(O)C3)cc(F)c2N1 (single isomer, unassigned) [Example 30B] | 0.017 µM |
| O=C1COCc2cc([C@H](O)CN3C[C@H]4C[C@H](Oc5ccccc5)C[C@@]4(O)C3)cc(F)c2N1 (single isomer, unassigned) [Example 32B] | 0.6 µM |
| O=c1[nH]c2ccc([C@@H](O)CN3C[C@H]4C[C@H](Oc5ccccc5)C[C@@]4(O)C3)cc2o1 (single isomer, unassigned) [Example 39A] | 0.026 µM |
| O=c1[nH]c2ccc([C@H](O)CN3C[C@H]4C[C@H](Oc5ccccc5)C[C@@]4(O)C3)cc2o1 (single isomer, unassigned) [Example 39B] | 0.086 µM |
| O=c1[nH]c2ccc([C@H](O)CN3C[C@H]4C[C@H](Oc5ccccc5F)C[C@@]4(O)C3)cc2o1 (single isomer, unassigned) [Example 40B] | 0.028 µM |
| O=C1Cc2cc([C@@H](O)CN3C[C@H]4C[C@H](Oc5ccccc5)[C@H](O)[C@@]4(O)C3)ccc2N1 [Example 3C, 5-((R)-2-((3aS,4S,5S,6aR)-3a,4-dihydroxy-5-phenoxyhexahydrocyclopenta[c]pyrrol-2(1H)-yl)-1-hydroxyethyl)indolin-2-one] | 0.4 µM |
| O=C1Cc2cc([C@H](O)CN3C[C@H]4C[C@H](Oc5ccccc5)[C@H](O)[C@@]4(O)C3)ccc2N1 [Example 3D, 5-((S)-2-((3aS,4S,5S,6aR)-3a,4-dihydroxy-5-phenoxyhexahydrocyclopenta[c]pyrrol-2(1H)-yl)-1-hydroxyethyl)indolin-2-one] | 0.075 µM |
| O=C1CCc2cc([C@H](O)CN3C[C@H]4C[C@H](Oc5ccccc5F)C[C@@]4(O)C3)ccc2N1 [Example 5B, 6-((S)-2-((3aS,5S,6aR)-5-(2-fluorophenoxy)-3a-hydroxyhexahydrocyclopenta[c]pyrrol-2(1H)-yl)-1-hydroxyethyl)-3,4-dihydroquinolin-2(1H)-one] | 0.13 µM |
| O=C1Nc2c(F)cc([C@@H](O)CN3C[C@H]4C[C@H](Oc5ccccc5)C[C@@]4(O)C3)cc2C[C@@H]1F [Example 19] | 0.0087 µM |

The remaining lines, values ahead:

| IC50 | Compound |
| --- | --- |
| 0.0026 µM | CC1(C)Cc2cc([C@H](O)CN3C[C@H]4C[C@H](Oc5ccccc5)C[C@@]4(O)C3)ccc2NC1=O (single isomer, unassigned) [Example 11B] |
| 0.00025 µM | O=C1Nc2ccc([C@H](O)CN3C[C@H]4C[C@H](Oc5ccccc5F)C[C@@]4(O)C3)cc2CCO1 (single isomer, unassigned) [Example 12B] |
| 0.002 µM | O=c1[nH]c2c(F)cc([C@@H](O)CN3C[C@H]4C[C@H](Oc5ccccc5)C[C@@]4(O)C3)cc2cc1F (single isomer, unassigned) [Example 20A] |
| 0.0016 µM | O=C1CCc2cc([C@H](O)CN3C[C@@H]4C[C@@H](Oc5ccc(F)cc5)C[C@]4(O)C3)ccc2N1 (single isomer, unassigned) [Example 22D] |
| 0.016 µM | O=C1CCc2cc([C@@H](O)CN3C[C@H]4C[C@H](Oc5cccc(F)c5F)C[C@@]4(O)C3)ccc2N1 (single isomer, unassigned) [Example 24A] |
| 0.014 µM | O=C1CCc2cc([C@H](O)CN3C[C@H]4C[C@H](Oc5ccc(F)cc5F)C[C@@]4(O)C3)ccc2N1 (single isomer, unassigned) [Example 25B] |
| 0.00022 µM | O=C1CCc2cc([C@H](O)CN3C[C@@H]4C[C@@H](Oc5ccc(F)cc5F)C[C@]4(O)C3)ccc2N1 (single isomer, unassigned) [Example 25D] |
| 0.0065 µM | O=C1Nc2c(F)cc([C@H](O)CN3C[C@H]4C[C@H](Oc5ccccc5)C[C@@]4(O)C3)c(F)c2CO1 (single isomer, unassigned) [Example 37B] |
| 0.0078 µM | O=C1Nc2c(cc([C@H](O)CN3C[C@H]4C[C@H](Oc5ccccc5)C[C@@]4(O)C3)c(F)c2F)CO1 (single isomer, unassigned) [Example 38B] |
| 0.0069 µM | O=c1[nH]c2ccc([C@@H](O)CN3C[C@H]4C[C@H](Oc5ccccc5F)C[C@@]4(O)C3)cc2o1 (single isomer, unassigned) [Example 40A] |
| 0.0012 µM | O=C1CCCc2cc([C@H](O)CN3C[C@H]4C[C@H](Oc5ccccc5F)C[C@@]4(O)C3)ccc2N1 (single isomer, unassigned) [Example 43B] |

— patent US20240208953A1, “"Cyclopenta[c]pyrrol Negative Allosteric Modulators of NR2B"” (Novartis AG, priority 2021, published 2024)
